The values below are quoted from earlier work in patent US20050215536A1, “Sequential SPRM/ progestin treatment” (priority 2004, published 2005).

The conditions of data set [1]: premenopausal women.
In the next data set the target is T1, progesterone receptor (Oryctolagus cuniculus, UniProt P06186).
T1 construct: SPRMs score lower than progesterone in the McPhail bioassay in rabbits; from tissue; host or cells: live rabbit
T1 sequence (P06186 1-930): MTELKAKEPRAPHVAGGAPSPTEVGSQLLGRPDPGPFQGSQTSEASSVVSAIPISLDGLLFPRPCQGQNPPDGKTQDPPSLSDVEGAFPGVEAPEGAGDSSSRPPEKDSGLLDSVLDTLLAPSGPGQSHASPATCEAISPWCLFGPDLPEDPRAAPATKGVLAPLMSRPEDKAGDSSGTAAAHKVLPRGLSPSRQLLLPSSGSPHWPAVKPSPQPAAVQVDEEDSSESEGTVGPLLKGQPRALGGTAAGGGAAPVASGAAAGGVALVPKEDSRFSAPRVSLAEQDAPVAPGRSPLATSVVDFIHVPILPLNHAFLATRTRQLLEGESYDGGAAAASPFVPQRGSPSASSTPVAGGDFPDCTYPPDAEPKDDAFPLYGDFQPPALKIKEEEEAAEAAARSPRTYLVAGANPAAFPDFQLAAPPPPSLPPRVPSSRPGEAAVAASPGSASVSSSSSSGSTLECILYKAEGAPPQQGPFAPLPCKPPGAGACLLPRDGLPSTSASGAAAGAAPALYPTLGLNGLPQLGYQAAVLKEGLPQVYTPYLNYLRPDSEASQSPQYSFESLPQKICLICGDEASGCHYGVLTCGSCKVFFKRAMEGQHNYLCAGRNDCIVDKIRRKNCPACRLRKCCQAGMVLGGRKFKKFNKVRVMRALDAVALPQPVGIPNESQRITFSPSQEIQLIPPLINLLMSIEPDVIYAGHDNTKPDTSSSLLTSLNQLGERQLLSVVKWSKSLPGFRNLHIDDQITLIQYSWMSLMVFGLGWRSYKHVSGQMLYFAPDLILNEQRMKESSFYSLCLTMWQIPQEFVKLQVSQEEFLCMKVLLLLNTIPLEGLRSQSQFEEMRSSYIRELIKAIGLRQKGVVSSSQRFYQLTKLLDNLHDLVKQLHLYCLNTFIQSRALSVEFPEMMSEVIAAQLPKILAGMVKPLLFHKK
Particulars: for McPhail score: rabbit model, scale of 0-4; for agonist activity in the McPhail bioassay: rabbits.

For `COC[C@]1(OC)CC[C@H]2[C@@H]3CCC4=CC(=O)CCC4=C3[C@@H](c3ccc(/C=N/O)cc3)C[C@@]21C` [J867, 4-[17β-Methoxy-17α-(methoxymethyl)-3-oxoestra-4,9-dien-11β-yl]benzaldehyd-(1E)-oxim], the “withdrawal bleeding (start of spontaneous menstrual cycle), time after stopping the SPRM treatment” value in data set [1] (all subjects, latest occurrence) is listed as “up to 90 days”. In data set [1] (majority of subjects), the “resumption of menstruation, time after cessation of treatment” value was no more than 30 days. Regarding `CC#C[C@]1(O)CC[C@H]2[C@@H]3CCC4=CC(=O)CCC4=C3[C@@H](c3ccc(N(C)C)cc3)C[C@@]21C` [RU486, mifepristone], on progesterone receptor, the McPhail score result was “less than 0.5” and the “agonist activity in the McPhail bioassay” value was “do not show any agonist activity”. In the case of `CN(C)c1ccc([C@H]2C[C@]3(C)[C@@H](CC[C@]3(O)CCCO)[C@@H]3CCC4=CC(=O)CCC4=C32)cc1` [onapristone], the “agonist activity in the McPhail bioassay” value at progesterone receptor was “do not show any agonist activity”.

In the case of `CC(=O)[C@H]1CC[C@H]2[C@@H]3CCC4=CC(=O)CC[C@]4(C)[C@H]3CC[C@]12C` [progesterone], on progesterone receptor, the McPhail score is given as 4.
